Test results: PubChem BioAssay AID256 (DTP/NCI, 2004)
Values joined by “and” are separate entries in the source; they are usually repeats but may differ in a detail not shown here. Equal values may be shown once. Inconclusive results and toxic doses are left out. Rule for the calls: active = survival T/C of 150% or more; inactive = T/C below 125% in these data.

Test system: CD2F1 mice, L1210 leukemia ip, survival T/C
Assay: NCI In Vivo Anticancer Drug Screen. Data for tumor model L1210 Leukemia (intraperitoneal) in CD2F1 (CDF1) mice
Settings: higher = longer survival
In short: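 Transplantable tumor in mice; compound-treated vs vehicle-treated groups. Read-out = treated/control ratio of the measured endpoint.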

[1] = endpoint: mean survival time, dose: 100.0 mg/kg/injection, schedule: Q01DX001 (ip), vehicle: saline with Tween-80
[2] = endpoint: mean survival time, dose: 200.0 mg/kg/injection, schedule: Q01DX001 (ip), vehicle: saline with Tween-80
[3] = endpoint: mean survival time, dose: 400.0 mg/kg/injection, schedule: Q01DX001 (ip), vehicle: saline with Tween-80
[4] = endpoint: mean survival time, dose: 100.0 mg/kg/injection, schedule: Q04DX003 (ip), vehicle: saline
[5] = endpoint: mean survival time, dose: 200.0 mg/kg/injection, schedule: Q04DX003 (ip), vehicle: saline
[6] = endpoint: mean survival time, dose: 400.0 mg/kg/injection, schedule: Q04DX003 (ip), vehicle: saline
[7] = endpoint: mean survival time, dose: 100.0 mg/kg/injection, schedule: Q04DX003 (ip), vehicle: saline with Tween-80
[8] = endpoint: mean survival time, dose: 200.0 mg/kg/injection, schedule: Q04DX003 (ip), vehicle: saline with Tween-80
[9] = endpoint: mean survival time, dose: 400.0 mg/kg/injection, schedule: Q04DX003 (ip), vehicle: saline with Tween-80
[10] = endpoint: mean survival time, dose: 25.0 mg/kg/injection, schedule: Q04DX002 (ip), vehicle: saline with Tween-80
[11] = endpoint: mean survival time, dose: 50.0 mg/kg/injection, schedule: Q04DX002 (ip), vehicle: saline with Tween-80
[12] = endpoint: mean survival time, dose: 100.0 mg/kg/injection, schedule: Q04DX002 (ip), vehicle: saline with Tween-80
[13] = endpoint: mean survival time, dose: 50.0 mg/kg/injection, schedule: Q04DX003 (ip), vehicle: saline

Measured: T/C

OCCCN1CCCCC1CO (configuration not stated)
inactive: endpoint: mean survival time, dose: 12.5 mg/kg/injection, schedule: Q01DX009 (ip), vehicle: saline 101 % of control and 103 % of control | endpoint: mean survival time, dose: 25.0 mg/kg/injection, schedule: Q01DX009 (ip), vehicle: saline 98 % of control and 100 % of control | endpoint: mean survival time, dose: 50.0 mg/kg/injection, schedule: Q01DX009 (ip), vehicle: saline 97 % of control and 98 % of control | endpoint: mean survival time, dose: 100.0 mg/kg/injection, schedule: Q01DX009 (ip), vehicle: saline 97 % of control and 98 % of control | endpoint: mean survival time, dose: 200.0 mg/kg/injection, schedule: Q01DX009 (ip), vehicle: saline 98 % of control | endpoint: mean survival time, dose: 400.0 mg/kg/injection, schedule: Q01DX009 (ip), vehicle: saline 91 % of control and 97 % of control | endpoint: median survival time, dose: 400.0 mg/kg/injection, schedule: Q01DX009 (ip), vehicle: saline 103 % of control | endpoint: median survival time, dose: 800.0 mg/kg/injection, schedule: Q01DX009 (ip), vehicle: saline 97 % of control

CCN(CC)CCN=Cc1c(O)c(O)c(C(C)C)c2cc(C)c(-c3c(C)cc4c(C(C)C)c(O)c(O)c(C=NCCN(CC)CC)c4c3O)c(O)c12
inactive: endpoint: mean survival time, dose: 100.0 mg/kg/injection, schedule: Q01DX001 (ip), vehicle: saline 90 % of control | endpoint: mean survival time, dose: 200.0 mg/kg/injection, schedule: Q01DX001 (ip), vehicle: saline 90 % of control | endpoint: mean survival time, dose: 400.0 mg/kg/injection, schedule: Q01DX001 (ip), vehicle: saline 93 % of control

O=C(OCC1OC(OC2(COC(=O)c3ccccc3)OC(COC(=O)c3ccccc3)C(OC(=O)c3ccccc3)C2OC(=O)c2ccccc2)C(OC(=O)c2ccccc2)C(OC(=O)c2ccccc2)C1OC(=O)c1ccccc1)c1ccccc1 (configuration not stated)
inactive: [1] 100 % of control | [2] 100 % of control | [3] 102 % of control

Cc1ccc2c(c1)C(=NCCCN=C1C(=O)Nc3ccc(C)cc31)C(=O)N2
inactive: [1] 103 % of control | [2] 95 % of control | [3] 98 % of control

O=C(O)CC(C(=O)O)C(=O)O
inactive: [4] 100 % of control | [5] 97 % of control | [6] 94 % of control

N/C(=N\N=C1CCCC1)N[N+](=O)[O-]
inactive: [7] 96 % of control | [8] 102 % of control | [9] 104 % of control

O=C1CCc2ccsc21
inactive: [10] 98 % of control | [11] 91 % of control | [12] 106 % of control

Cc1cc(=O)[nH]c2c1c(C#N)cn2C1CCCCC1
inactive: [4] 101 % of control | [5] 89 % of control | [6] 93 % of control

O=c1c(-c2ccccc2)nn(C2OC(CO)C(O)C(O)C2O)c(=S)n1-c1ccccc1 (configuration not stated)
inactive: endpoint: mean survival time, dose: 7.8 mg/kg/injection, schedule: Q01DX005 (ip), vehicle: water 101 % of control | endpoint: mean survival time, dose: 15.6 mg/kg/injection, schedule: Q01DX005 (ip), vehicle: water 96 % of control | endpoint: mean survival time, dose: 31.3 mg/kg/injection, schedule: Q01DX005 (ip), vehicle: water 101 % of control | endpoint: mean survival time, dose: 62.5 mg/kg/injection, schedule: Q01DX005 (ip), vehicle: water 93 % of control | endpoint: mean survival time, dose: 125.0 mg/kg/injection, schedule: Q01DX005 (ip), vehicle: water 101 % of control

COc1cc[n+](C)cc1
inactive: endpoint: mean survival time, dose: 100.0 mg/kg/injection, schedule: Q04DX002 (ip), vehicle: saline 100 % of control | endpoint: mean survival time, dose: 200.0 mg/kg/injection, schedule: Q04DX002 (ip), vehicle: saline 91 % of control | endpoint: mean survival time, dose: 400.0 mg/kg/injection, schedule: Q04DX002 (ip), vehicle: saline 95 % of control

N#CCc1c(Cl)c(Cl)c(Cl)c(Cl)c1Cl
inactive: [7] 103 % of control | [8] 103 % of control | [9] 102 % of control

Cc1c2ccncc2c(C)c2c1[nH]c1ccc(Br)cc12
inactive: [13] 101 % of control | [4] 101 % of control | [5] 103 % of control | [6] 103 % of control

CCN(CC)CCCNc1cc(OC)cc2nc3cc(Cl)ccc3nc12
inactive: endpoint: mean survival time, dose: 12.5 mg/kg/injection, schedule: Q01DX009 (ip), vehicle: suspension in saline 98 % of control | endpoint: mean survival time, dose: 25.0 mg/kg/injection, schedule: Q01DX009 (ip), vehicle: suspension in saline 100 % of control and 101 % of control | endpoint: mean survival time, dose: 50.0 mg/kg/injection, schedule: Q01DX009 (ip), vehicle: suspension in saline 98 % of control and 105 % of control | endpoint: mean survival time, dose: 100.0 mg/kg/injection, schedule: Q01DX009 (ip), vehicle: suspension in saline 101 % of control and 108 % of control | endpoint: mean survival time, dose: 200.0 mg/kg/injection, schedule: Q01DX009 (ip), vehicle: suspension in saline 112 % of control

O=c1[nH]c2ccc(I)cc2c(=O)o1
inactive: [7] 101 % of control | [8] 98 % of control | [9] 104 % of control

Cc1cn(C2CC(O)C(CO)O2)c(=O)nc1N1CCCCCCC1 (configuration not stated)
inactive: endpoint: median survival time, dose: 12.5 mg/kg/injection, schedule: Q01DX005 (ip), vehicle: water 102 % of control | endpoint: median survival time, dose: 25.0 mg/kg/injection, schedule: Q01DX005 (ip), vehicle: water 102 % of control | endpoint: median survival time, dose: 50.0 mg/kg/injection, schedule: Q01DX005 (ip), vehicle: water 102 % of control | endpoint: median survival time, dose: 100.0 mg/kg/injection, schedule: Q01DX005 (ip), vehicle: water 102 % of control | endpoint: median survival time, dose: 200.0 mg/kg/injection, schedule: Q01DX005 (ip), vehicle: water 103 % of control

CN1CC=C(N2CCOCC2)CC1
inactive: endpoint: mean survival time, dose: 25.0 mg/kg/injection, schedule: Q04DX003 (ip), vehicle: saline 109 % of control | [13] 103 % of control | [4] 103 % of control and 109 % of control

CC(=O)C1=C(O)C(Cc2ccccc2)NC1=O (configuration not stated)
inactive: endpoint: mean survival time, dose: 100.0 mg/kg/injection, schedule: Q01DX001 (ip), vehicle: Klucel (hydroxypropylcellulose) (HPC) 98 % of control | endpoint: mean survival time, dose: 200.0 mg/kg/injection, schedule: Q01DX001 (ip), vehicle: Klucel (hydroxypropylcellulose) (HPC) 102 % of control | endpoint: mean survival time, dose: 400.0 mg/kg/injection, schedule: Q01DX001 (ip), vehicle: Klucel (hydroxypropylcellulose) (HPC) 102 % of control

COc1ccc(OC)c(/C=C/c2cnnc3ccccc23)c1
inactive: endpoint: mean survival time, dose: 18.75 mg/kg/injection, schedule: Q04DX003 (ip), vehicle: Klucel (hydroxypropylcellulose) (HPC) 102 % of control | endpoint: mean survival time, dose: 37.5 mg/kg/injection, schedule: Q04DX003 (ip), vehicle: Klucel (hydroxypropylcellulose) (HPC) 104 % of control | endpoint: mean survival time, dose: 75.0 mg/kg/injection, schedule: Q04DX003 (ip), vehicle: Klucel (hydroxypropylcellulose) (HPC) 114 % of control | endpoint: mean survival time, dose: 150.0 mg/kg/injection, schedule: Q04DX003 (ip), vehicle: Klucel (hydroxypropylcellulose) (HPC) 104 % of control | endpoint: mean survival time, dose: 300.0 mg/kg/injection, schedule: Q04DX003 (ip), vehicle: Klucel (hydroxypropylcellulose) (HPC) 108 % of control

c1ccc(Sc2ccncc2)cc1
inactive: [10] 102 % of control | [11] 91 % of control | [12] 98 % of control and 105 % of control

Nc1[nH]c(=S)[nH]c(=O)c1N
inactive: endpoint: mean survival time, dose: 6.25 mg/kg/injection, schedule: Q04DX002 (ip), vehicle: saline with Tween-80 102 % of control | endpoint: mean survival time, dose: 12.5 mg/kg/injection, schedule: Q04DX002 (ip), vehicle: saline with Tween-80 102 % of control | [10] 102 % of control

N=c1c2c(C(N)=O)cn(C3OC(CO)C(O)C3O)c2ncn1N (configuration not stated)
inactive: endpoint: mean survival time, dose: 14.7 mg/kg/injection, schedule: Q01DX005 (ip), vehicle: water 110 % of control | endpoint: mean survival time, dose: 22.0 mg/kg/injection, schedule: Q01DX005 (ip), vehicle: water 118 % of control | endpoint: mean survival time, dose: 25.0 mg/kg/injection, schedule: Q01DX005 (ip), vehicle: water 117 % of control | endpoint: mean survival time, dose: 33.0 mg/kg/injection, schedule: Q01DX005 (ip), vehicle: water 121 % of control | endpoint: mean survival time, dose: 50.0 mg/kg/injection, schedule: Q01DX005 (ip), vehicle: water 120 % of control | endpoint: mean survival time, dose: 75.0 mg/kg/injection, schedule: Q01DX005 (ip), vehicle: water 106 % of control | endpoint: mean survival time, dose: 100.0 mg/kg/injection, schedule: Q01DX005 (ip), vehicle: water 98 % of control

C=CCCCCCCCCC(=O)NN1CCOCC1
inactive: endpoint: mean survival time, dose: 100.0 mg/kg/injection, schedule: Q01DX009 (ip), vehicle: saline with Tween-80 94 % of control | endpoint: mean survival time, dose: 200.0 mg/kg/injection, schedule: Q01DX009 (ip), vehicle: saline with Tween-80 91 % of control | endpoint: mean survival time, dose: 400.0 mg/kg/injection, schedule: Q01DX009 (ip), vehicle: saline with Tween-80 94 % of control

C/C=C(/C)C(=O)O[C@H]1CC[C@@]2(C)[C@@H]3CC[C@H]4[C@]5(O)C[C@H](O)[C@@]6(O)[C@@H](CN7C[C@@H](C)CC[C@H]7[C@@]6(C)O)[C@]5(O)C[C@@]42O[C@@]13O
inactive: endpoint: mean survival time, dose: 0.5 mg/kg/injection, schedule: Q01DX009 (ip), vehicle: saline with Tween-80 101 % of control | endpoint: mean survival time, dose: 1.0 mg/kg/injection, schedule: Q01DX009 (ip), vehicle: saline with Tween-80 101 % of control | endpoint: mean survival time, dose: 2.0 mg/kg/injection, schedule: Q01DX009 (ip), vehicle: saline with Tween-80 101 % of control
